According to article PMC12164026, “Plant-derived nodule-specific cysteine-rich peptides as potent antifungal agents against Cryptococcus neoformans: mechanisms of action, chimeric peptide enhancement, and immunomodulatory effects” (Current Research in Microbial Sciences, 2025):
In brackets after ≈: the same amount, converted by molar mass. Read-outs that look alike come from different tables or passages of the source. Bridge positions count the residues as written; N and C are the ends. Peptide text beside a SMILES is read from it.

Tests used:
[1] = system: Cryptococcus neoformans IFM 5844; experiment: microbe, parasite or virus in culture; assay type: cell-based; conditions: five-fold diluted YNB + 1 % dextrose, 5 × 10^4 cells/mL, 30 °C, 72 h, OD 620 nm, ≥ 90 % growth inhibition, tested 25 to 0.39 µM, three biological replicates
Procedure: (§1) The susceptibility of Cryptococcus neoformans IFM 5844 to 20 peptides (Supplementary Table 1) was tested in a widely used synthetic medium to cultivate yeasts (YNB) and in a serum-free medium what is able to support the proliferation of macrophage cells (X-VIVO).
YNB medium: five-fold diluted Difco Yeast Nitrogen Base w/o Amino Acids medium (Becton, Dickinson and Company, Sparks, MD, USA) supplemented with 1 % dextrose
(§2) The minimal inhibitory concentration (MIC) of each peptide was determined by using micro-dilution assay. The C. neoformans suspensions were adjusted to 5 × 10^4 cells/mL concentration in either YNB or X-VIVO medium. A 96-well microtiter plate was prepared by adding 95 µL suspension per well followed by 5 µL of serially two-fold diluted peptide solutions achieving a final volume of 100 µl. The concentration of the peptides ranged from 25 to 0.39 µM. For control samples, 5 µL pure medium was added to the yeast cell suspension instead of peptides. Plates were incubated at 37 °C for 48 h in X-VIVO medium and 30 °C for 72 h in YNB medium. After incubation, optical density was measured at 620 nm using a SPECTROstar Nano plate reader (BMG LabTech, Offenburg, Germany). […] The experiments were carried out in three independent biological replicates.

[2] = system: Cryptococcus neoformans IFM 5844; experiment: Minimal fungicidal concentration (MFC) determination, spotting on YPD; assay type: cell-based; conditions: cultures from MIC assays diluted and spotted onto solid YPD, 30 °C, 48 h
Procedure: Minimal fungicidal concentration (MFC) determination. To assess fungicidal activity, both control and peptide-treated cultures from the MIC assays were diluted 10-fold and 100-fold in sterile distilled water. Five µL from each dilution was then spotted onto solid YPD medium (1 % pepton, 1 % dextrose, 0.5 % yeast extract, 2 % agar). The plates were incubated at 30 °C for 48 h and fungal growth was evaluated. MFC was defined as the lowest peptide concentration at which no visible fungal growth was detected, indicating complete fungicidal activity.

[3] = system: Cryptococcus neoformans IFM 5844; assay type: cell-based; conditions: half-diluted X-VIVO 15 medium, 37 °C, 48 h, OD 620 nm, ≥ 90 % growth inhibition, tested 25 to 0.39 µM, three biological replicates
Procedure: as §1
X-VIVO medium: half-diluted X-VIVO™ 15 cell culture medium (Lonza, Verviers, Belgium).
as §2

[4] = system: C. neoformans IFM 5844 cells; experiment: Cell membrane permeability, calcein-AM assay by flow cytometry; assay type: cell-based, Cryptococcus neoformans; conditions: half-MIC, 2 h, 30 °C, YNB
Procedure: The effect of the peptides on the cell membrane permeability of C. neoformans IFM 5844 cells was checked by flow cytometry with calcein-AM assay ([Olson, et al., 2001]). Calcein-acetoxymethyl ester (calcein-AM) is a membrane-permeable live-cell dye that, upon entering the cell, is cleaved by intracellular esterases, converting it into calcein, a membrane-impermeable fluorescent marker. The assay was carried out by suspending a total of 1 × 10^7 cells in 100 µl YNB medium containing 20 µg/mL indomethacin (Sigma-Aldrich, Saint Louis, MO, USA) and incubating them at 30 °C for 30 min to inhibit calcein transporters. Following this pre-treatment, membrane-permeable calcein-AM (Invitrogen, Waltham, MA, USA) was added to a final concentration of 5 µg/mL, and the samples were incubated at 30 °C for 3 h allowing the calcein-AM to enter the cells where esterases converted it to fluorescent calcein. After incubation, cells were washed twice with sterile distilled water and subsequently exposed to peptides at half-MIC concentrations in YNB medium for 2 h at 30 °C. Following peptide treatment, cells were washed twice with sterile distilled water, and fluorescence intensity was measured using a FlowSight® flow cytometer (Amnis-EMD Millipore) equipped with a 488-nm excitation laser. Intact cells stained with calcein-AM but not exposed to peptides served as controls. To ensure statistical reliability, four independent experiments were conducted, and fluorescence intensity was recorded from 10,000 cells per sample during each experiment.

[5] = Cryptococcus neoformans, IFM5844, read-out: MIC

| Compound | MIC ([1]; read-out: MIC) [µM] | fungistatic or fungicide mode of action [2] | MIC [1] | further results |
| --- | --- | --- | --- | --- |
| CC[C@H](C)[C@H](NC(=O)[C@H](CCCCN)NC(=O)[C@H](Cc1ccccc1)NC(=O)[C@H](CC(C)C)NC(=O)[C@@H]1CCCN1C(=O)[C@H](CCCCN)NC(=O)[C@H](CCCCN)NC(=O)[C@H](CO)NC(=O)[C@@H](N)CCCCN)C(=O)N[C@@H](Cc1c[nH]c2ccccc12)C(=O)N[C@@H](CCCCN)C(=O)N[C@H]1CSSC[C@@H](C(=O)N[C@H](C(=O)N[C@@H](CC(C)C)C(=O)N[C@@H](Cc2c[nH]c3ccccc23)C(=O)N[C@@H](Cc2ccc(O)cc2)C(=O)N[C@@H](CCCCN)C(N)=O)C(C)C)NC(=O)[C@H](C(C)C)NC(=O)[C@H](CC(N)=O)NC(=O)[C@H](CCC(=O)O)NC(=O)[C@H](C(C)C)NC1=O [NCR169C17–38ox] (H-KSKKPLFKIWKCVENVCVLWYK-NH2; disulfide 12-17; N-terminus assumed) | 3.12 | fungicidal effect | – | – |
| OC(Cn1cncn1)(Cn1cncn1)c1ccc(F)cc1F [Fluconazole, fluconazole, reference compound] | – | – | – | MIC [1, 5]: 12.5 µM |
| KLRRANVRCRK [NCR335C17–27, further truncation of NCR335C17–33] | – | – | lacked inhibitory effect | – |
| CC[C@H](C)[C@H](NC(=O)[C@@H]1CCCN1C(=O)[C@@H](NC(=O)[C@H](CS)NC(=O)[C@H](Cc1ccc(O)cc1)NC(=O)[C@H](CO)NC(=O)[C@H](CCCCN)NC(=O)[C@H](CCCNC(=N)N)NC(=O)[C@H](CS)NC(=O)[C@H](CCCNC(=N)N)NC(=O)[C@@H](NC(=O)[C@H](CC(N)=O)NC(=O)[C@H](C)NC(=O)[C@H](CCCNC(=N)N)NC(=O)[C@H](CCCNC(=N)N)NC(=O)[C@H](CC(C)C)NC(=O)[C@H](CCCCN)NC(=O)[C@@H]1CCCN1C(=O)[C@H](CS)NC(=O)[C@H](CC(=O)O)NC(=O)[C@H](CCCCN)NC(=O)[C@H](CC(N)=O)NC(=O)[C@@H](NC(=O)[C@H](CCCCN)NC(=O)[C@H](CS)NC(=O)[C@H](CC(=O)O)NC(=O)[C@H](CO)NC(=O)[C@H](CC(C)C)NC(=O)[C@@H](NC(=O)[C@H](CC(C)C)NC(=O)[C@H](CO)NC(=O)[C@H](Cc1ccccc1)NC(=O)[C@@H](N)Cc1c[nH]cn1)[C@@H](C)CC)[C@@H](C)O)C(C)C)C(C)C)C(N)=O [NCR335C1–33] (H-HFSLILSDCKTNKDCPKLRRANVRCRKSYCVPI-NH2; N-terminus assumed) | – | fungicidal effect | – | – |
| FWGQNRNIMKHRGQ [NCR335N16–29, 14 amino acid-long N-terminal fragment of NCR335] | – | – | ineffective | – |
| CKTNKDCP [NCR335C9–16, short derivative of NCR335 C-terminal region] | – | – | lacked inhibitory effect | – |
| HFSLILSD [NCR335C1–8, short derivative of NCR335 C-terminal region] | – | – | lacked inhibitory effect | – |
| HFSLILSDCKTNKDCP [NCR335C1–16, short derivative of NCR335 C-terminal region] | – | – | lacked inhibitory effect | – |
| CC[C@H](C)[C@H](NC(=O)[C@H](CCCCN)NC(=O)[C@H](CCCCN)NC(=O)[C@H](C)NC(=O)[C@H](CC(C)C)NC(=O)[C@H](C)NC(=O)[C@H](C)NC(=O)[C@H](CC(C)C)NC(=O)[C@H](C)NC(=O)[C@H](CCCCN)NC(=O)[C@H](CCCNC(=N)N)NC(=O)[C@H](CCCNC(=N)N)NC(=O)[C@H](CCCNC(=N)N)NC(=O)[C@H](CS)NC(=O)[C@H](Cc1ccc(O)cc1)NC(=O)[C@H](CC(C)C)NC(=O)[C@@H]1CCCN1C(=O)[C@H](CCCNC(=N)N)NC(=O)[C@H](CCCNC(=N)N)NC(=O)[C@H](CS)NC(=O)[C@H](CCC(N)=O)NC(=O)[C@@H](N)CCC(N)=O)C(=O)N[C@@H](CC(C)C)C(N)=O [NCR247C-X2] (H-QQCRRPLYCRRRKALAALAKKIL-NH2; N-terminus assumed) | 0.78 | fungicidal effect | – | MIC [3]: 1.56 µM (≈ 4.3 µg/mL); calcein leakage / membrane permeability disruption [4]: highest calcein leakage; proportion of calcein-stained cells ([4]; stained untreated control 75 %, four independent experiments): 8% |
| CC[C@H](C)[C@H](NC(=O)[C@H](CCCCN)NC(=O)[C@H](Cc1ccccc1)NC(=O)[C@H](CC(C)C)NC(=O)[C@@H]1CCCN1C(=O)[C@H](CCCCN)NC(=O)[C@H](CCCCN)NC(=O)[C@H](CO)NC(=O)[C@@H](N)CCCCN)C(=O)N[C@@H](C)C(=O)N[C@@H](CCCCN)C(=O)N[C@@H](CS)C(=O)N[C@H](C(=O)N[C@@H](CCC(=O)O)C(=O)N[C@@H](CC(N)=O)C(=O)N[C@H](C(=O)N[C@@H](CS)C(=O)N[C@H](C(=O)N[C@@H](CC(C)C)C(=O)N[C@@H](C)C(=O)N[C@@H](Cc1ccc(O)cc1)C(=O)N[C@@H](CCCCN)C(N)=O)C(C)C)C(C)C)C(C)C [NCR169C17–38W10,20/A] (H-KSKKPLFKIAKCVENVCVLAYK-NH2; N-terminus assumed) | 6.25 | fungicidal effect | – | calcein leakage / membrane permeability disruption [4]: highest calcein leakage |
| CC(C)C[C@H](NC(=O)[C@@H]1CCCN1C(=O)[C@H](CCCNC(=N)N)NC(=O)[C@H](CCCNC(=N)N)NC(=O)[C@H](CS)NC(=O)[C@H](CCC(N)=O)NC(=O)[C@@H](N)CCC(N)=O)C(=O)N[C@@H](Cc1ccc(O)cc1)C(=O)N[C@@H](CS)C(=O)N[C@@H](CCCNC(=N)N)C(=O)N[C@@H](CCCNC(=N)N)C(=O)N[C@@H](CCCNC(=N)N)C(N)=O [NCR247C] (H-QQCRRPLYCRRR-NH2; N-terminus assumed) | 6.25 | fungicidal effect | – | calcein leakage / membrane permeability disruption [4]: highest calcein leakage |
| CC[C@H](C)[C@H](NC(=O)[C@H](CCCCN)NC(=O)[C@H](Cc1ccccc1)NC(=O)[C@H](CC(C)C)NC(=O)[C@@H]1CCCN1C(=O)[C@H](CCCCN)NC(=O)[C@H](CCCCN)NC(=O)[C@H](CO)NC(=O)[C@@H](N)CCCCN)C(=O)N[C@@H](Cc1c[nH]c2ccccc12)C(=O)N[C@@H](CCCCN)C(=O)N[C@@H](CS)C(=O)N[C@H](C(=O)N[C@@H](CCC(=O)O)C(=O)N[C@@H](CC(N)=O)C(=O)N[C@H](C(=O)N[C@@H](CS)C(=O)N[C@H](C(=O)N[C@@H](CC(C)C)C(=O)N[C@@H](Cc1c[nH]c2ccccc12)C(=O)N[C@@H](Cc1ccc(O)cc1)C(=O)N[C@@H](CCCCN)C(N)=O)C(C)C)C(C)C)C(C)C [NCR169C17–38] (H-KSKKPLFKIWKCVENVCVLWYK-NH2; N-terminus assumed) | 3.12 | fungicidal effect | – | calcein leakage / membrane permeability disruption [4]: highest calcein leakage |
| RLNTTFRPLNFKMLRFWGQNRNIMKHRGQKVHFSLILSDCKTNKDCPKLRRANVRCRKSYCVPI [NCR335, 64-amino-acid-long cationic M. truncatula NCR peptide] | 3.12 | – | – | – |
| C[C@@H]1[C@H](O)[C@@H](C)/C=C/C=C/C=C/C=C/C=C/C=C/C=C/[C@H](O[C@@H]2O[C@H](C)[C@@H](O)[C@H](N)[C@@H]2O)C[C@@H]2O[C@](O)(C[C@@H](O)C[C@@H](O)[C@H](O)CC[C@@H](O)C[C@@H](O)CC(=O)O[C@H]1C)C[C@H](O)[C@H]2C(=O)O [amphotericin B, reference compound] | – | – | – | MIC [1, 5]: 1.56 µM |
